Measured values reported in patent publication US20080269310A1, “Synergistic Combinations” (priority 2005, published 2008).
Like-named read-outs stand apart in the source and are kept apart here.

Experiments:
[1] = tested on: carrageenan-induced thermal hyperalgesia; assay: rat carrageenan footpad thermal hyperalgesia assay (Hargreaves test); assay type: in vivo; details: gabapentin 10-100 mg/kg SC, carprofen 1-10 mg/kg SC, combination in fixed 10:1 ratio
Description: The aim of this experiment was to characterize the anti-nociceptive and anti-inflammatory effects of gabapentin administered in combination with carprofen in the rat. In this example, gabapentin, carprofen, and the combination of gabapentin and carprofen were evaluated in a standard rat carrageenan footpad thermal hyperalgesia assay. This assay utilizes an extract of seaweed (carrageenan) that, when injected into the footpad of test animals, causes a sterile inflammation, thereby lowering the pain threshold. […]
Each data point represents the mean and standard error of mean. […] The theoretical dose-additive line for a 10:1 dose ratio was determined (dotted line) as described (Tallarida, 1992). The experimental determination of a 10:1 dose ratio was determined (gabapentin-carprofen mixture 10:1) and a shift to the left of the theoretical dose-additive line was found. […]
Dose-effect curves were first determined for (1) gabapentin by itself and (2) carprofen by itself. The ED50 value of each agent was determined, as was the time to peak effect. […]
Carrageenan-induced thermal hyperalgesia: Rats were acclimated to a testing chamber whose glass floor was maintained at 25° C. One hour later, a high intensity beam of light was focused through the glass on the ventral surface of each hind paw, and the latency to reflex withdrawal of the paw from the light beam was measured to the nearest 0.1 second. […]

[2] = tested on: COX-2 isozyme compared to the COX-1 isozyme; details: dogs, cited from earlier work
[3] = tested on: COX-2 isozyme compared to the COX-1 isozyme; details: cats; American Journal of Veterinary Research, 2001, 62, 11, 1755; cited from earlier work
[4] = tested on: COX-2 isozyme compared to the COX-1 isozyme; details: horses; American Journal of Veterinary Research, 2001, 62, 11, 1755; cited from earlier work

CC(C(=O)O)c1ccc2c(c1)[nH]c1ccc(Cl)cc12 (stereo not drawn) [carprofen, 6-chloro-α-methyl-9H-carbazole-2-acetic acid]
antihyperalgesic action (in words) [1]: antihyperalgesic actions | selectivity for the COX-2 isozyme compared to the COX-1 isozyme ([2]; American Journal Veterinary Research, 2000, 61, 7, 802): 1.75 fold | selectivity for the COX-2 isozyme compared to the COX-1 isozyme ([2]; American Journal Veterinary Research, 2002, 63, 1, 91): 16.8 fold | selectivity for the COX-2 isozyme compared to the COX-1 isozyme ([2]; American Journal of Veterinary Research, 2001, 62, 11, 1755): 6.5 fold | selectivity for the COX-2 isozyme compared to the COX-1 isozyme ([2]; WO 98/50033): 129 fold | selectivity for the COX-2 isozyme compared to the COX-1 isozyme [3]: 5.5 fold | selectivity for the COX-2 isozyme compared to the COX-1 isozyme [4]: 1.6 fold

NCC1(CC(=O)O)CCCCC1 [gabapentin, 1-(aminomethyl)-cyclohexylacetic acid]
antihyperalgesic action (in words) [1]: antihyperalgesic actions
